Paper PMC10644342, “Improved Antibacterial Activity of 1,3,4-Oxadiazole-Based Compounds That Restrict Staphylococcus aureus Growth Independent of LtaS Function” (ACS Infectious Diseases, 2023)
Like-named read-outs stand apart in the source and are kept apart here.

Tests used:
[1] = system: S. epidermidis strain RP62A; experiment: Biofilm prevention, crystal violet assay; format: cell-based, Staphylococcus epidermidis; settings: for concentration causing a 50% reduction in biofilm formation: 24 h
Protocol: (§1) An indication of the biofilm prevention capabilities of 1771 and its derivatives 9–14 was achieved through the application of the crystal violet assay. S. aureus strain SH1000 and S. epidermidis strain RP62A were used, as they are strong biofilm formers. Overnight cultures were diluted 1:200 in fresh TSB containing 0.5% glucose (TSB-G), and 100 μL was added to individual wells in a 96-well microtiter plate. One hundred microliters of 1771 and 9–14 were diluted in TSB-G and added to bacteria at a final concentration ranging from 256 to 0.25 μg/mL with subsequent incubation for 24 h at 37 °C in a static incubator. Following incubation, biofilms were washed four times with ddH2O before being stained with 150 μL of 0.1% crystal violet for 30 min at room temperature. Following a further four washes in ddH2O, wells were resuspended in 200 μL of 7% acetic acid. The absorbance intensity of the crystal violet was measured at abs595nm in a Sunrise plate reader. Biomass formed was measured as a percentage of the no-compound control.

[2] = system: S. epidermidis; experiment: MIC, broth microdilution (CLSI); format: cell-based, Staphylococcus epidermidis; settings: Staphylococcus epidermidis, read-out: minimum inhibitory concentration
Protocol: (§2) S. aureus, S. epidermidis, E. faecalis, and E. faecium strains were routinely cultivated on tryptic soy agar (TSA) and grown for 18 h at 37 °C. S. aureus single colonies were subsequently transferred into 2 mL of tryptic soy broth (TSB) and grown for a further 18 h at 37 °C while being shaken at 180 rpm. S. pyogenes, S. agalactiae, and S. dysgalactiae strains were routinely cultured on TSA supplemented with 5% sheep blood and grown for 18 h at 37 °C with 5% CO2. E. coli was grown in LB broth at 37 °C. For LtaS-deficient strains, TSB was supplemented with 0.5 M NaCl to provide an osmotically balanced environment and instead grown at 30 °C. For strains harboring the pRMC2 tetracycline inducible vector,[61] the growth medium was supplemented with 10 μg/mL chloramphenicol and […] anhydrotetracycline hydrochloride (Sigma). Phenylalanine-arginine β-naphthylamide (PAβN) (Sigma) was dissolved in sterile water.
(§3) B. subtilis, staphylococcal, and enterococcal strains were grown in Mueller Hinton broth (MHB), while streptococcal strains were grown in MHB supplemented with 5% laked horse blood. All strains were grown for 18 h at 37 °C. The overnight cultures were subsequently subcultured 1:200 and grown to the exponential phase (OD600nm = 0.5–0.6) in fresh broth. 1771 and its derivatives 9–14 were reconstituted in DMSO and further diluted by performing a 1:2 serial dilution ranging between 256 and 0.125 μg/mL in a 96-well microtiter plate. One hundred microliters of 0.5 McFarland standardized inoculum (approximately equal to 5 × 10^5 cfu) were then dispensed into each well in the 96-well microtiter plate. The plate was incubated for 18 h at 37 °C.

[3] = system: S. aureus strain SH1000; experiment: Biofilm prevention, crystal violet assay; format: cell-based, Staphylococcus aureus; settings: for concentration causing a 50% reduction in biofilm formation: SH1000, 24 h; for biofilm prevention compared with 1771: SH1000
Protocol: as §1

[4] = system: S. aureus; experiment: MIC, broth microdilution (CLSI); format: cell-based, Staphylococcus aureus; settings: for fold increase in the MIC when compared to 1771: S. aureus and S. epidermidis strains; for MIC: Staphylococcus aureus, read-out: minimum inhibitory concentration
Protocol: as §2, §3

COc1ccc2c(ccc3occ(CC(=O)OCC(=O)Nc4nnc(-c5ccccc5)o4)c32)c1 [Compound 9, 2-Oxo-2-((5-phenyl-1,3,4-oxadiazol-2-yl)amino)ethyl 2-(7-Methoxynaphtho[2,1-b]furan-1-yl)acetate]
4- to 16 fold: fold increase in the MIC when compared to 1771 [4]
64 µg/mL: MIC ([2]; strain 305) | MIC ([2]; strain 311) | MIC ([2]; strain 319) | MIC ([2]; strain 322) | MIC ([2]; strain 771) | MIC ([4]; strain EMRSA-15) | MIC ([4]; strain MRSA252) | MIC ([4]; strain MW2) | MIC ([4]; strain Mu3) | MIC ([4]; strain Mu50)
32 µg/mL: MIC ([2]; strain 780) | MIC ([2]; strain RP62A) | MIC ([4]; NEWMAN, strain Newman) | MIC ([4]; strain SH1000) | MIC ([4]; strain TW20)
16 to 64 µg/mL: concentration causing a 50% reduction in biofilm formation [1]
32 to 64 µg/mL: concentration causing a 50% reduction in biofilm formation [3] | MIC ([4]; strain LAC)

O=C(COC(=O)Cc1coc2ccc3ccccc3c12)Nc1nnc(-c2cccc(Cl)c2)o1 [Compound 10, 2-((5-(3-Chlorophenyl)-1,3,4-oxadiazol-2-yl)amino)-2-oxoethyl 2-(Naphtho[2,1-b]furan-1-yl)acetate]
4- to 16 fold: fold increase in the MIC when compared to 1771 [4]
16 to 64 µg/mL: concentration causing a 50% reduction in biofilm formation [1]
32 to 64 µg/mL: MIC ([2]; strain 305) | MIC ([2]; strain 311) | MIC ([2]; strain 771) | MIC ([2]; strain 780) | concentration causing a 50% reduction in biofilm formation [3] | MIC ([4]; strain EMRSA-15)
64 µg/mL: MIC ([2]; strain 319) | MIC ([2]; strain 322) | MIC ([2]; strain RP62A) | MIC ([4]; NEWMAN, strain Newman) | MIC ([4]; strain LAC) | MIC ([4]; strain MRSA252) | MIC ([4]; strain MW2) | MIC ([4]; strain Mu3) | MIC ([4]; strain Mu50) | MIC ([4]; strain SH1000) | MIC ([4]; strain TW20)

COc1ccc2c(ccc3occ(CC(=O)OCC(=O)Nc4nnc(-c5cccc(Cl)c5)o4)c32)c1 [Compound 11, 2-((5-(3-Chlorophenyl)-1,3,4-oxadiazol-2-yl)amino)-2-oxoethyl 2-(7-Methoxynaphtho[2,1-b]furan-1-yl)acetate]
2 µg/mL: MIC ([2]; strain 311) | MIC ([2]; strain 319) | MIC ([2]; strain 771) | MIC ([4]; NEWMAN, strain Newman) | MIC ([4]; strain EMRSA-15) | MIC ([4]; strain MW2) | MIC ([4]; strain Mu3) | MIC ([4]; strain Mu50) | MIC ([4]; strain SH1000) | MIC ([4]; strain TW20)
2 to 4 µg/mL: MIC ([2]; strain 305) | MIC ([2]; strain RP62A)
4 µg/mL: MIC ([2]; strain 322) | MIC ([2]; strain 780) | MIC ([4]; strain LAC) | MIC ([4]; strain MRSA252)
better than 1771: biofilm prevention compared with 1771 [1] | biofilm prevention compared with 1771 [3]

O=C(COC(=O)Cc1coc2ccc3ccccc3c12)Nc1nnc(-c2ccc(F)cc2)o1 [Compound 12, 2-((5-(4-Fluorophenyl)-1,3,4-oxadiazol-2-yl)amino)-2-oxoethyl 2-(Naphtho[2,1-b]furan-1-yl)acetate]
worse than 1771: biofilm prevention compared with 1771 [3]
better: biofilm prevention compared with 1771 [1]
16 µg/mL: MIC ([4]; strain MRSA252)
8 µg/mL: MIC ([2]; strain 305) | MIC ([2]; strain 322) | MIC ([4]; NEWMAN, strain Newman) | MIC ([4]; strain EMRSA-15) | MIC ([4]; strain LAC) | MIC ([4]; strain MW2) | MIC ([4]; strain Mu3) | MIC ([4]; strain SH1000) | MIC ([4]; strain TW20)
4 to 8 µg/mL: MIC ([2]; strain 311) | MIC ([2]; strain 319) | MIC ([2]; strain 771) | MIC ([2]; strain 780) | MIC ([2]; strain RP62A) | MIC ([4]; strain Mu50)

O=C(COC(=O)Cc1coc2ccc3ccccc3c12)Nc1nnc(-c2ccccc2)s1 [Compound 14, 2-Oxo-2-((5-phenyl-1,3,4-thiadiazol-2-yl)amino)ethyl 2-(Naphtho[2,1-b]furan-1-yl)acetate]
16 to 64 µg/mL: concentration causing a 50% reduction in biofilm formation [1]
32 to 64 µg/mL: concentration causing a 50% reduction in biofilm formation [3]
4- to 16 fold: fold increase in the MIC when compared to 1771 [4]
> 64 µg/mL: MIC ([2]; strain 305) | MIC ([2]; strain 311) | MIC ([2]; strain 319) | MIC ([2]; strain 322) | MIC ([2]; strain 771) | MIC ([2]; strain 780) | MIC ([2]; strain RP62A) | MIC ([4]; NEWMAN, strain Newman) | MIC ([4]; strain EMRSA-15) | MIC ([4]; strain LAC) | MIC ([4]; strain MRSA252) | MIC ([4]; strain MW2) | MIC ([4]; strain Mu3) | MIC ([4]; strain Mu50) | MIC ([4]; strain SH1000) | MIC ([4]; strain TW20)
